Where no end group is shown, it is not given here.
Legend:
[1] = tested on: cell-cell; experiment: Cell-cell adhesion; type: cell-based
Source text: (§1) Several screening methods were utilized. Most of the methods follow a similar protocol outlined below.
(§2) A tertiary library may be constructed from a third round of screening and those peptides selected may be used in functional screening assays to further isolate peptides of specific activity.

[2] = tested on: tumor cells; experiment: Apoptosis of tumor cells; type: cell-based
Source text: as §1, §2

[3] = molecular target: CD44 (Homo sapiens, UniProt P16070); experiment: CD44 interaction with GAG; type: binding
Source text: as §1, §2

[4] = tested on: tumor cells; experiment: Homotypic aggregation of tumor cells; type: cell-based
Source text: as §1, §2

[5] = tested on: melanoma cell; experiment: Melanoma cell attachment; type: cell-based
Source text: as §1, §2

[6] = Tolerability of the peptide in animals; type: in vivo
Procedure: To evaluate that effectiveness of SEQ ID NO: 54 against primary tumor growth and metastasis, 1×10^7 cells were injected subcutaneously into the left flank of nude mice. After six weeks the resulting tumors were aseptically dissected out, minced and 1 mm-tumor pieces were transplanted into the right flank of nude mice using a trocar needle. Two weeks later, when tumors were measured approximately 10 mm, mice were assigned to different experimental groups. One group of 24 animals bearing MDA-MB-231 xenografts were divided into 3 groups that received the following treatments one group of 8 animals received a weekly injection of apoptotic peptide (0.3-100 μg/kg for SEQ ID NO: 54) through the peritoneal cavity. […] Tumors were measured once every two days with microcalipers, and tumor volume was calculated as length×width×height×0.5236. Body weights were measured on the day of the injection, 4 days later and weekly thereafter. […] Total leukocyte and platelet counts were determined manually using a hemocytometer. […] Treatment-related toxicity was evaluated based on the differences in body weight, liver and kidney marker enzymes and the hematological parameters between treatment groups. […] Liver, heart, uterus, ovaries, lungs spinal cord and all long bones were evaluated histologically. […]

[7] = tested on: cell/collagen interaction; experiment: Cell/collagen interaction; type: cell-based
Source text: as §1, §2

[8] = Heparin binding
Source text: as §1, §2

[9] = tested on: neutrophils, endothelium, fibrosarcomas melanoma; experiment: Neutrophils, endothelium, fibrosarcomas, melanoma attachment; type: cell-based
Source text: as §1, §2

[10] = tested on: eosinophils; experiment: Activation of apoptosis in eosinophils; type: cell-based; conditions: versus control
Source text: SEQ ID NO: 56 (Acetylated-GRGENPS) activates apoptosis in eosinophils. […] Fibronectin in combination with SEQ ID NO: 56 further increased the percentage of apoptotic cells by roughly 70%.

[11] = molecular target: T1, alpha4 integrin (Homo sapiens, UniProt P13612); experiment: alpha4 integrin binding
T1 sequence (P13612 34-1032): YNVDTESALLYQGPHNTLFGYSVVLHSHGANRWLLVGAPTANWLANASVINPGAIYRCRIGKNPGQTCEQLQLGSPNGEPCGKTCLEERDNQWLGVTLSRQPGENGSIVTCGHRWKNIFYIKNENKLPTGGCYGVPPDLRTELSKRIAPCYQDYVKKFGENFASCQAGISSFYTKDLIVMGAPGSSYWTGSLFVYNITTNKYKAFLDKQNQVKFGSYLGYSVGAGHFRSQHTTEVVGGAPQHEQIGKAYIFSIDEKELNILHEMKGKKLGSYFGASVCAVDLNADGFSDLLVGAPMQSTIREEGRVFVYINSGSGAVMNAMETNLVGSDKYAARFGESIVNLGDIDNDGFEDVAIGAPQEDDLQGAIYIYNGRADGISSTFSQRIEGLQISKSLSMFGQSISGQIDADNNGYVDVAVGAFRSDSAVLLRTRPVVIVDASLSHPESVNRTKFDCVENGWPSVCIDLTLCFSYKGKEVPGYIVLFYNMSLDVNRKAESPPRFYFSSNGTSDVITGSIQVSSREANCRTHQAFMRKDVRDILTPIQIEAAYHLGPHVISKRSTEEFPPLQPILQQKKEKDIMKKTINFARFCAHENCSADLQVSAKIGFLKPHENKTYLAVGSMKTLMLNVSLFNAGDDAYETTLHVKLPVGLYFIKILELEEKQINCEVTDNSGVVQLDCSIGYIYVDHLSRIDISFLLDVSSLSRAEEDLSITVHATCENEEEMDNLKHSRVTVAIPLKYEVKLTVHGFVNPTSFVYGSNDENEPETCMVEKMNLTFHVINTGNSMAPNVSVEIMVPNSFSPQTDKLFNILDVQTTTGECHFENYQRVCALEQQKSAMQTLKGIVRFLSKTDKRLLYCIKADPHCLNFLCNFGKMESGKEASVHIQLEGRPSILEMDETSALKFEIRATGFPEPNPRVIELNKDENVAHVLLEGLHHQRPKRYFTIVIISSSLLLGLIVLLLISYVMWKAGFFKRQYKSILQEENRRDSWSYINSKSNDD
Source text: as §1, §2

[12] = tested on: fibroblast; experiment: Fibroblast attachment; type: cell-based
Source text: as §1, §2

[13] = tested on: collagenase; experiment: Collagenase induction; type: cell-based
Source text: as §1, §2

[14] = tested on: β integrin; experiment: β integrin binding
Source text: as §1, §2

[15] = tested on: cell; experiment: Cell entry of peptides; type: cell-based
Source text: as §1, §2

[16] = tested on: Endothelial cell; experiment: Endothelial cell attachment; type: cell-based
Source text: as §1, §2

[17] = tested on: macrophage; experiment: Macrophage recruitment by osteopontin, C5a, fibronectin (activity assay of minicell display peptides); type: cell-based
Source text: as §1, §2

[18] = tested on: invasion complex; experiment: Invasion complex binding, in vitro studies
Source text: SEQ ID NO: 55 ([…] is a peptide derived and modified from a parent peptide isolated using minicell display. The design objective for the parent peptide was to generate a mini protein with the mechanistic advantages of taxol, but devoid of the toxicity and side effects of taxol-type drugs.

[19] = Induction of apoptosis and cell death; type: cell-based
[20] = tested on: integrin signaling, CD44 signaling, rhoB; experiment: Integrin/CD44 signaling and microtubule stabilization in vivo

Sequence of CD44 (P16070 21-742, species assumed): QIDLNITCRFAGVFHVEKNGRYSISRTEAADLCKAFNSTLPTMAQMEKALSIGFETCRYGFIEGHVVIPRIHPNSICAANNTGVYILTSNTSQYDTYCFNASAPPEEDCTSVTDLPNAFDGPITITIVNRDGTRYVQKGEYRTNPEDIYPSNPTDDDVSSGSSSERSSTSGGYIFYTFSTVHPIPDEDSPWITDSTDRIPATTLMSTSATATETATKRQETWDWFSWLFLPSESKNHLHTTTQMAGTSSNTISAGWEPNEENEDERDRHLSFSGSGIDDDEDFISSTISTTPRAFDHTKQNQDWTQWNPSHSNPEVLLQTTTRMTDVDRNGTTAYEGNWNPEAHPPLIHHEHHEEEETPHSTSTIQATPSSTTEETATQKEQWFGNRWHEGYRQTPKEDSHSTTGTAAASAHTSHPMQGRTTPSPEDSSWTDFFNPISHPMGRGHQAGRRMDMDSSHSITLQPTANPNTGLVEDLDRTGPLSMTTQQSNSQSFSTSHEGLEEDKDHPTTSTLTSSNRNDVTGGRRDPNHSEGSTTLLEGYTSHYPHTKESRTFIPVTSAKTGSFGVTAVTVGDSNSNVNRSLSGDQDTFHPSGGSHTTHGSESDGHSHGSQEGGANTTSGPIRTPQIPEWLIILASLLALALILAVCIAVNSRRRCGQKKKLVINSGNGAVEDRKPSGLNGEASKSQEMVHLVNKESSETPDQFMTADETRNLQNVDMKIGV

For RRSRSSTGKKQKSSQSRKTA [SEQ ID NO:51], the “FUNCTIONAL ACTIVITY: Anti-adhesion (cell-cell)” value [1] was “Anti-adhesion (cell-cell)”.

With “DGGRGDSLGWYRRGRGGARRSKAKKAAAKNNQKSEPLIGRKKT [SEQ ID NO:52]” the “FUNCTIONAL ACTIVITY: Apoptotic to tumor cells” value [2] was “Apoptotic to tumor cells”.

For YYWRQQQKSDPVVSRRRSPS [SEQ ID NO:44], the “FUNCTIONAL ACTIVITY: CD44 interaction with GAG” value [3] was “Inhibits CD44 interaction with”.

With KNNQKSEPLIGRKKT [SEQ ID NO:43] the “FUNCTIONAL ACTIVITY: CD44 interaction with GAG” value [3] was “Inhibits CD44 interaction with”.

For HGRFILPWWYAFSPS [SEQ ID NO:48], the “FUNCTIONAL ACTIVITY: homotypic aggregation of tumor cells” value [4] was “Inhibit homotypic aggregation”.

In the case of DRYLKFRPV [SEQ ID NO:38], the “FUNCTIONAL ACTIVITY: melanoma cell attachment” value [5] is reported as “Inhibits melanoma cell”.

In the case of Ac-DKMLDP [SEQ ID NO: 54, DKMLDP], the Therapeutic index [6] is reported as “high” and the “Tolerability of relatively high doses” value ([6]; more than ten fold the optimum effective dose) is reported as “no deleterious effects”.

With DRQWGLC [SEQ ID NO:11] the “FUNCTIONAL ACTIVITY: cell/collagen interaction” value [7] was “Inhibits cell/collagen”.

For DSVAYGLKSRSK [SEQ ID NO:16], the “FUNCTIONAL ACTIVITY: heparin binding” value [8] was “Inhibits heparin binding”.

For KGMNYTVR [SEQ ID NO:40], the “FUNCTIONAL ACTIVITY: neutrophils, endothelium, fibrosarcomas melanoma attachment” value [9] was “Inhibits, neutrophils,”.

For fibronectin [reference compound], the “Change of the percentage of apoptotic cells (in words)” value [10] was “decreased the percentage of apoptotic cells”.

For DSVVYGLRSK [SEQ ID NO:14], the “FUNCTIONAL ACTIVITY: heparin binding” value [8] was “Inhibits heparin binding”.

In the case of LDSAS [SEQ ID NO:20], the “FUNCTIONAL ACTIVITY: alpha4 integrin binding” value [11] is reported as “Inhibits alpha4 integrin”.

In the case of DSVAYGLKSK [SEQ ID NO:15], the “FUNCTIONAL ACTIVITY: heparin binding” value [8] is reported as “Inhibits heparin binding”.

For “Acetylated-GRGENPS (Ac-GRGENPS) [SEQ ID NO: 56]”, the “Increase of the percentage of apoptotic cells” value [10] was “roughly 20%”.

With QESPSGTDLLVAGSSP [SEQ ID NO:26] the “FUNCTIONAL ACTIVITY: alpha4 integrin binding” value [11] was “Inhibits alpha4 integrin”.

For ESHQKYGYCGGCDRNNP [SEQ ID NO:13], the “FUNCTIONAL ACTIVITY: cell/collagen interaction” value [7] was “Inhibits cell/collagen”.

In the case of PNGRGESLAY [SEQ ID NO:37], the “FUNCTIONAL ACTIVITY: fibroblast attachment” value [12] is reported as “Inhibits fibroblast attachment,” and the “FUNCTIONAL ACTIVITY: collagenase induction” value [13] is reported as “inhibits collagenase induction”.

With TPVVPTVDTYDGRGDSLAY [SEQ ID NO:27] the “FUNCTIONAL ACTIVITY: β integrin binding” value [14] was “β integrin binding”.

For EPEESDVGGAADYP [SEQ ID NO:25], the “FUNCTIONAL ACTIVITY: alpha4 integrin binding” value [11] was “Inhibits alpha4 integrin”.

With CVVVLVL [SEQ ID NO: 19] the “FUNCTIONAL ACTIVITY: cell entry of peptides” value [15] was “Promotes cell entry of peptides”.

For KKGKKSKRS [SEQ ID NO:50], the “FUNCTIONAL ACTIVITY: Anti-adhesion (cell-cell)” value [1] was “Anti-adhesion (cell-cell)”.

In the case of VLPTPTPPGYLSSRSSR [SEQ ID NO:42], the “FUNCTIONAL ACTIVITY: endothelial cell attachment” value [16] is reported as “Inhibits endothelial cell”.

With HKFVHWKKPVLPSQNNQ [SEQ ID NO:39] the “FUNCTIONAL ACTIVITY: melanoma cell attachment” value [5] was “Inhibits melanoma cell”.

With KRSR [SEQ ID NO:53] the “FUNCTIONAL ACTIVITY: Apoptotic to tumor cells” value [2] was “Apoptotic to tumor cells”.

For DADQKFGFC [SEQ ID NO:12], the “FUNCTIONAL ACTIVITY: cell/collagen interaction” value [7] was “Inhibits cell/collagen”.

With DRDRAWGYC [SEQ ID NO:10] the “FUNCTIONAL ACTIVITY: cell/collagen interaction” value [7] was “Inhibits cell/collagen”.

For LVPSSKGRGDYLAQSQP [SEQ ID NO:36], the “FUNCTIONAL ACTIVITY: collagenase induction” value [13] was “collagenase induction”.

In the case of SDV [SEQ ID NO:24], the “FUNCTIONAL ACTIVITY: alpha4 integrin binding” value [11] is reported as “Inhibits alpha4 integrin”.

With KKAKKSRRS [SEQ ID NO:49] the “FUNCTIONAL ACTIVITY: Anti-adhesion (cell-cell)” value [1] was “Anti-adhesion (cell-cell)”.

With LDSPPAALS [SEQ ID NO:21] the “FUNCTIONAL ACTIVITY: alpha4 integrin binding” value [11] was “Inhibits alpha4 integrin”.

With GRGDNPS [SEQ ID NO:35] the “FUNCTIONAL ACTIVITY: collagenase induction” value [13] was “collagenase induction”.

For DQDQRWGYC [SEQ ID NO:9], the “FUNCTIONAL ACTIVITY: cell/collagen interaction” value [7] was “Inhibits cell/collagen”.

With AADVESPS [SEQ ID NO:22] the “FUNCTIONAL ACTIVITY: alpha4 integrin binding” value [11] was “Inhibits alpha4 integrin”.

In the case of WTGGDDSGSPSSPS [SEQ ID NO:23], the “FUNCTIONAL ACTIVITY: alpha4 integrin binding” value [11] is reported as “Inhibits alpha4 integrin”.

For VLEP [SEQ ID NO:7], the “FUNCTIONAL ACTIVITY: macrophage recruitment by osteopontin, C5a, fibronectin” value [17] was “Inhibitor of macrophage”.

With DPGYIGSR [SEQ ID NO:41] the “FUNCTIONAL ACTIVITY: endothelial cell attachment” value [16] was “Inhibits endothelial cell”.

In the case of “PYAGRGDSVVYGLKKKNNQKAEPLIGRKKTR [SEQ ID NO: 55]”, the “Binding to the invasion complex” value [18] is reported as “binds to the invasion complex”, the “Apoptosis and cell death” value [19] is reported as “induces apoptosis and cell death” and the “Integrin signaling versus CD44 signaling” value [20] is reported as “uncouple integrin signaling from CD44 signaling”. For the same substance, the Microtubules ([20]; by down stream activation of rhoB) was “stabilization of microtubules”.

For DDDRKWGFC [SEQ ID NO:8], the “FUNCTIONAL ACTIVITY: cell/collagen interaction” value [7] was “Inhibits cell/collagen”.

Source: US20040010116A1, “Minicell display and products therefrom” (Children's Medical Center Corp., priority 2002, published 2004)
